Experimental data taken from paper PMC5247677 (Scientific Reports, 2017).
Like-named read-outs stand apart in the source and are kept apart here.

Assays:
[1] = tested on: formalin-induced pain in mice; assay: Formalin-induced spontaneous pain behaviours; type: in vivo, mouse (C57BL/6 J)
Procedure: (§1) For behavioural assessment we used adult male C57BL/6 J mice or Sprague Dawley rats aged 5–8 weeks. Animals were housed in groups of 2–4 per cage, under 12 h light-dark cycles with standard rodent chow and water ad libitum. All assessments were performed by a blinded investigator unaware of the treatment each animal received. Ethical approval for in vivo experiments in animals was obtained from the University of Queensland, University of Sydney or United Kingdom Home Office animal ethics committee. Experiments involving animals were conducted in accordance with the International Association for the Study of Pain Guidelines for the Use of Animals in Research and the Australian Code of Practice for the Care and Use of Animals for Scientific Purposes, 8th edition (2013).
Formalin (1% v/v) was administered by i.pl injection in mice as previously described. […] Spontaneous pain behaviours were counted from video recordings. Phase I was defined as 0–10 min and Phase II defined as 10–55 min following formalin injection.

[2] = tested on: carrageenan-induced mechanical allodynia in mice; assay: Carrageenan-induced mechanical allodynia (electronic von Frey); type: in vivo, mouse (C57BL/6 J)
Procedure: as §1
(§2) Carrageenan (1% w/v) was administered by i.pl injection in mice as previously described. Behavioural assessment was performed 3 h post-injection. […] Mechanical thresholds were determined using electronic von Frey (MouseMet Electronic von Frey, TopCat Metrology, UK) as previously described. Thermal thresholds were determined using the thermal probe test (MouseMet Thermal, TopCat Metrology) as described.

rat NaV1.7 channel = settings: cited from earlier work
[3] = tested on: carrageenan-induced thermal allodynia in mice; assay: Carrageenan-induced thermal allodynia (thermal probe test); type: in vivo, mouse (C57BL/6 J); settings: P > 0.05
Procedure: as §1, §2

NaV1.7 [4] = settings: cited from earlier work
Excerpt: In general, spider venom-derived peptides bind to the voltage-sensing domains of NaV channels to modify gating associated with channel activation and inactivation.

NaV1.7 [5] = settings: 30 mg/kg; cited from earlier work
[6] = tested on: noxious heat response in mice; assay: Hot plate test (50 °C), noxious heat; type: in vivo, mouse (C57BL/6 J); settings: 30 mg/kg i.p., control 25.9 ± 1.8 s, P > 0.05, n = 6–16
[7] = cited from earlier work
Excerpt: (§3) However, while NaV1.7 is expressed on axons, it is unlikely to have a major role in action potential propagation, given it has slow recovery from fast inactiv ...

NaV isoforms = settings: up to 2 μM; cited from earlier work
[8] = tested on: acute heat responses in mice; type: in vivo, mouse (C57BL/6 J); settings: n = 6
Procedure: Paw-withdrawal latency in mice pre-administered phlotoxin 1 (i.p. 50 μg/kg; Venomtech, Valbonne, France), thiorphan (i.p. 20 mg/kg), buprenorphine (i.p. 50 μg/kg), or combinations, was determined using the Hargreaves apparatus (Plantar Analgesia Meter, IITC, CA, USA), with three withdrawal responses measured per animal.

[9] = tested on: mice and human lacking functional NaV1.7; settings: in vivo; cited from earlier work
[10] = tested on: inflammatory pain in rodents; settings: rodent model of inflammatory pain; cited from earlier work
Excerpt: as §3

Cn1nccc1-c1ccccc1Oc1ccc(S(=O)(=O)Nc2nccs2)cc1C#N [PF-04856264]
formalin Phase I and Phase II pain behaviours ([1]; 30 mg/kg i.p., formalin 1% i.pl., P > 0.05, two-way ANOVA, n = 4–15): neither Pn3a (3 mg/kg i.p.) (Fig. 7d) or PF-04856264 (30 mg/kg ip.) (Figure 7e) significantly reduced Phase I or Phase II pain behaviours | paw withdrawal force (PWF) ([2]; PF-04856264 30 mg/kg i.p., control 1.2 ± 0.2 g, P > 0.05, n = 4–12): 1.5 ± 0.3 g | potency at the rat NaV1.7 channel (rat NaV1.7 channel): low potency at the rat NaV1.7 channel | paw withdrawal temperature (PWT) ([3]; PF-04856264 30 mg/kg i.p., control 44.1 ± 0.5 °C, n = 4–12): 44.4 ± 1.2 °C | state preference at NaV1.7 (NaV1.7 [4]): preferentially bind to the slow inactivated state | efficacy in the OD1 model (NaV1.7 [5]): efficacy in the OD1 model at a dose of 30 mg/kg was previously reported | time to withdrawal, hot plate [6]: 30.7 ± 3.8 s | blood-brain barrier penetration ([7]; expectation): unlikely to cross the blood-brain barrier

NCC1(CC(=O)O)CCCCC1 [gabapentin]
paw withdrawal force (PWF) ([2]; gabapentin 100 mg/kg i.p., control 1.1 ± 0.3 g, P > 0.05, n = 3–8): 1.1 ± 0.1 g | paw withdrawal temperature (PWT) ([3]; gabapentin 100 mg/kg i.p., control 44.5 ± 0.9 °C, n = 3–8): 45.4 ± 0.5 °C

phlotoxin 1: previously characterized spider peptide NaV1.7 inhibitor
effect on other NaV isoforms (NaV isoforms): no effect on other NaV isoforms | time to withdrawal, acute heat ([8]; phlotoxin 1 50 μg/kg i.p., buprenorphine experiment, control 6.3 ± 0.5 s): 5.8 ± 0.7 s | time to withdrawal, acute heat ([8]; phlotoxin 1 50 μg/kg i.p., thiorphan experiment, control 5.7 ± 0.9 s): 7.3 ± 0.9 s | IC50 (NaV1.7 [4]): 260 nM

C=CCN1CC[C@]23c4c5ccc(O)c4O[C@H]2C(=O)CC[C@@]3(O)[C@H]1C5 [naloxone]
reversal of analgesia [9]: substantially reverses analgesia

O=C(O)CNC(=O)C(CS)Cc1ccccc1 (centres unmarked) [thiorphan]
time to withdrawal, acute heat ([8]; thiorphan 20 mg/kg i.p., control 5.7 ± 0.9 s): 5.0 ± 0.4 s

buprenorphine
time to withdrawal, acute heat ([8]; buprenorphine 50 μg/kg i.p., control 6.3 ± 0.5 s): 7.2 ± 0.5 s

COc1ccc2c3c1O[C@H]1C(=O)CC[C@@]4(O)[C@@H](C2)N(C)CC[C@]314 [oxycodone]
pain behaviours, formalin Phase II ([1]; oxycodone 1 mg/kg i.p., control 227 ± 14, n = 7–11): 231 ± 22 | paw withdrawal force (PWF) ([2]; oxycodone 0.67 mg/kg i.p., control 1.2 ± 0.2 g, n = 4–12): 1.8 ± 0.2 g

ProTx-II: NaV1.7 selective spider peptide from the venom of Thrixopelma pruriens
onset of effect at NaV1.7 (NaV1.7 [4]): slow onset of effect | analgesic activity [10]: lack analgesic activity | plasma levels ([7]; rodent): plasma levels sufficient to inhibit NaV1.7 in vitro

Nc1[nH]ncc1-c1cc(Cl)ccc1Oc1cc(F)c(S(=O)(=O)Nc2cscn2)cc1Cl [PF-05089771]
state preference at NaV1.7 (NaV1.7 [4]): preferentially bind to the slow inactivated state
